Values quoted from earlier work, collected in patent US20110086102A1, “DELAYED RELEASE COMPOSITIONS” (Teva Pharmaceutical Industries Ltd., priority 2009, published 2011).
Read-outs that look alike come from different tables or passages of the source.

In the case of `COc1c(C)c2c(c(O)c1C/C=C(\C)CCC(=O)[O-])C(=O)OC2.[Na+]` [Mycophenolate sodium, (E)-6-(4-hydroxy-6-methoxy-7-methyl-3-oxo-1,3-dihydro-isobenzofuran-5-yl)-4-methylhex-4-enoic acid sodium salt], the Solubility (0.1N hydrochloric acid) is listed as “practically insoluble” and the Solubility (aqueous media at physiological pH) is listed as “highly soluble”.
